Assay results reported in ChEMBL document CHEMBL1201862, “PubChem BioAssay data set” (2004).
Activity calls are given as the source filed them.

How the values were obtained:
[1] = target: T1, Botulinum neurotoxin type A (Clostridium botulinum (strain Hall / ATCC 3502 / NCTC 13319 / Type A), UniProt P0DPI1); experiment: Confirmatory FRET assay using full length substrates for Botulinum neurotoxin light chain A protease, with Powder Set01.; type: functional
[2] = target: T1, Botulinum neurotoxin type A; experiment: High-throughput multiplex microsphere dose response for inhibitors of toxin protease, specifically Botulinum neurotoxin light chain A protease, compounds from Powder Set 01.; type: functional, Clostridium botulinum A str. ATCC 3502; conditions: read-out: EC50_MICROM
Lethal factor = Lethal factor (Bacillus anthracis, UniProt P15917); experiment: High-throughput multiplex microsphere dose response for inhibitors of toxin protease, specifically Lethal Factor protease, compounds from Powder Set 01.; type: functional, Bacillus anthracis str. A2012; conditions: read-out: EC50_MICROM
[3] = HEK293T cytotoxicity, dose response, cytotoxicity control for miR-122 modulator project, cell-based, activator set, cherry-pick (AID 720690); type: functional;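 also: HEK293T human cells scored for general mammalian cytotoxicity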
[4] = HepG2 cell cytotoxicity, dose response, cytotoxicity control, cherry-picked samples (AID 1159577); type: functional, cell-based
[5] = miR-122 activators in hepatoma reporter cells, dose response, cell-based, Huh7 psiCHECK-miR122, Renilla luciferase, cherry-picked (AID 651956); type: functional;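 also: huh7 hepatoma cells stably carrying a psiCHECK-2 miR-122 sensor plasmid; renilla luciferase signal reporting endogenous miR-122 activity after 48 h compound exposure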
[6] = inhibitors of PGC1a acetylation in cells, dose response, cell-based, cherry-picked samples (AID 720514); type: functional;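 also: potency may reflect raised or lowered acetylation signal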
[7] = P. falciparum Dd2 growth inhibitors, dose response, SYBR Green, cherry-picked samples (AID 1159567); type: functional, cell-based
[8] = TRPM1 promoter luciferase reporter signal decrease, dose response, MITF inhibitor project, cell-based, SK-MEL-5, dry powder, set 8 (AID 624430); type: functional
[9] = MITF Orthogonal Assay: SK-MEL-5 CTG Assay Measured in Cell-Based System Using Plate Reader - 2084-02_Inhibitor_Dose_DryPowder_Activity_Set7.; type: functional
[10] = MITF: Counter assay: A375 proliferation Measured in Cell-Based System Using Plate Reader - 2084-03_Inhibitor_Dose_DryPowder_Activity_Set8.; type: functional; conditions: A-375
[11] = cytotoxicity in OV-90 ovarian cancer cells, dose response, PAX8 inhibitor project, cell-based, plate reader, dry powder, SA8 (AID 743149); type: functional
[12] = PAX2 cell-based inhibition, dose response, selectivity assay for PAX8 inhibitor project, plate reader, dry powder samples (AID 743048); type: functional;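 also: HEK293 cells carrying a WT1 promoter luciferase reporter driven by expressed Pax2; potency is for inhibition of Pax2 driven reporter signal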
Paired box protein Pax-8 = Paired box protein Pax-8 (Homo sapiens, UniProt Q06710); experiment: inhibitors of PAX8-driven TPO luciferase reporter, dose response, RMG-I cells, cherry-pick (AID 687027); type: functional, cell-based;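 also: luciferase reporter driven by Pax8 target thyroperoxidase promoter measured by SteadyGlo luminescence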
[13] = PAX5 activity inhibitors, dose response, selectivity assay for PAX8 inhibitor project, cell-based, plate reader, dry powder samples (AID 743047); type: functional;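 also: HEK293 cells carrying a Pax5 driven CD19 promoter luciferase reporter; potency of inhibitors that lower reporter luminescence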
[14] = T. cruzi intracellular amastigote growth inhibition, dose response, imaging, CA-I/72 strain, bovine embryo skeletal muscle, dry powder (AID 651885); type: functional, cell-based
[15] = T. cruzi growth inhibition in host cells, dose response, cell-based, plate reader, dry powder, set 2 (AID 652275); type: functional
[16] = target: Metabotropic glutamate receptor 3 (Rattus norvegicus, UniProt P31422); experiment: mGlu3 NAM potency via calcium readout, dose response, mGlu3 NAM project, TREx293 cells, Galpha15, calcium flux (AID 651840); type: functional
[17] = target: Kappa-type opioid receptor (Homo sapiens, UniProt P41145); experiment: OPRK1 antagonists, late-stage follow-up, cell-based, fluorescence, dose response (AID 652032); type: functional
Kappa-type opioid receptor, sequence (P41145 whole entry): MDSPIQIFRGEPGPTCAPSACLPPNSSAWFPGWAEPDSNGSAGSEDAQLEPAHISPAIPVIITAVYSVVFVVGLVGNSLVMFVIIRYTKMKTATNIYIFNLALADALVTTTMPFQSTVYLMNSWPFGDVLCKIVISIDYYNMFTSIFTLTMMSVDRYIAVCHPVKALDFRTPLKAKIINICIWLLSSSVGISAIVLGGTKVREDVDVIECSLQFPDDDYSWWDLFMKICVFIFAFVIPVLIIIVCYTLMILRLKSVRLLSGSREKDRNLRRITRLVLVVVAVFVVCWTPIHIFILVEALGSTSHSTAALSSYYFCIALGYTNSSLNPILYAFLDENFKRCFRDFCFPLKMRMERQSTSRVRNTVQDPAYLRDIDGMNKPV

T1 sequence (P0DPI1 2-448 limits assumed): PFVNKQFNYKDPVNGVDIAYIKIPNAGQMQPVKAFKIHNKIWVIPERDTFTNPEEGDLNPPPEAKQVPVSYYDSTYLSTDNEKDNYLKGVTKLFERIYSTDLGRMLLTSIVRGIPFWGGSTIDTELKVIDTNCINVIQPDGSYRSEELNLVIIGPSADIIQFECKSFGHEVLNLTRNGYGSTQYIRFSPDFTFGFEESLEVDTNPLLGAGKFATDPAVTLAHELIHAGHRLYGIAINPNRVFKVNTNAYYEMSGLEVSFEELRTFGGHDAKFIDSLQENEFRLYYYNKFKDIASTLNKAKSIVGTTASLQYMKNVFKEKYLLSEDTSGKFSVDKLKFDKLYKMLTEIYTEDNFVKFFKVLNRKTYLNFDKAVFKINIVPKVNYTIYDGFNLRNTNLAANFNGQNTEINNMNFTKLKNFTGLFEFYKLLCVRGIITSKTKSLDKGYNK
Metabotropic glutamate receptor 3, sequence (P31422 whole entry): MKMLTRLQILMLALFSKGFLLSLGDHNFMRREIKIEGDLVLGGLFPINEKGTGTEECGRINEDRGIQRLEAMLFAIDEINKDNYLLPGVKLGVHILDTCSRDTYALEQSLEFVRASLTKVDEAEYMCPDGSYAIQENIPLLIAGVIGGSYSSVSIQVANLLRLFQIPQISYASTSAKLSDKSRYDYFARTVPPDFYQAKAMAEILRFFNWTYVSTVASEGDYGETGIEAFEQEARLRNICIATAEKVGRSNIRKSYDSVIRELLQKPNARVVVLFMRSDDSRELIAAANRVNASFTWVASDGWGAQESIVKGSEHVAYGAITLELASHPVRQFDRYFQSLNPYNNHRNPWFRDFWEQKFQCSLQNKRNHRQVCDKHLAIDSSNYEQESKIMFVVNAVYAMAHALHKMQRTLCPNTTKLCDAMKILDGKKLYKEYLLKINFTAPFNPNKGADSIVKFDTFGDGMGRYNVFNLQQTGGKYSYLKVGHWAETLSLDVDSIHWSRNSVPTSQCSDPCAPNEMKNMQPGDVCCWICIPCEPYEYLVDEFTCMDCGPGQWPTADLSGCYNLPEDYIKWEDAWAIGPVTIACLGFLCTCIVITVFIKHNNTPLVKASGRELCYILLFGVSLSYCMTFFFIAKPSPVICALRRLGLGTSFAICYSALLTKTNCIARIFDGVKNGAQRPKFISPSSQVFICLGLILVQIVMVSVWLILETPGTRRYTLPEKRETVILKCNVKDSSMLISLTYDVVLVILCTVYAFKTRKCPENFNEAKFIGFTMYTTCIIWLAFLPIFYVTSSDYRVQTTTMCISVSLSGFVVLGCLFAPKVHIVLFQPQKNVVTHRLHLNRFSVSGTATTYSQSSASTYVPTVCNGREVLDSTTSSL
Lethal factor, sequence (P15917 whole entry): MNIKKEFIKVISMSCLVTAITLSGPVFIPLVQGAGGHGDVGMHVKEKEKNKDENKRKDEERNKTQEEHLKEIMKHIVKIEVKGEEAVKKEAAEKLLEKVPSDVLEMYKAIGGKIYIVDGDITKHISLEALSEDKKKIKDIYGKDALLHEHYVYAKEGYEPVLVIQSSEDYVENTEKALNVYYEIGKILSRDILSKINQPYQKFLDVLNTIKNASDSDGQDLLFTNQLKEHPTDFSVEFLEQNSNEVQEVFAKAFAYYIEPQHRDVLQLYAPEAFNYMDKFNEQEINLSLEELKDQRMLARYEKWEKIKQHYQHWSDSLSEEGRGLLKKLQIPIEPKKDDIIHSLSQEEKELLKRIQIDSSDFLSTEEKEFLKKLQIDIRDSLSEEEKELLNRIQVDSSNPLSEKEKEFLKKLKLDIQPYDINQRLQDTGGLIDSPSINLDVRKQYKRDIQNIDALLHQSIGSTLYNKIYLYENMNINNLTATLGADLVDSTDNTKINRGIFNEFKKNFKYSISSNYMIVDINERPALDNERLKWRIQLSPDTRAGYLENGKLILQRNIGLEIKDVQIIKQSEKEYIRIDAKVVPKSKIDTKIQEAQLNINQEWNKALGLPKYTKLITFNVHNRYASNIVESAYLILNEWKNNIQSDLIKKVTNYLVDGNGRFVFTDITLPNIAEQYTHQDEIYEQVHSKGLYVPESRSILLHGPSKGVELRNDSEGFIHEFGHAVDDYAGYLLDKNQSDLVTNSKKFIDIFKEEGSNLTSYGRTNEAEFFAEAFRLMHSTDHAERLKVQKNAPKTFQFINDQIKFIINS
Paired box protein Pax-8, sequence (Q06710 whole entry): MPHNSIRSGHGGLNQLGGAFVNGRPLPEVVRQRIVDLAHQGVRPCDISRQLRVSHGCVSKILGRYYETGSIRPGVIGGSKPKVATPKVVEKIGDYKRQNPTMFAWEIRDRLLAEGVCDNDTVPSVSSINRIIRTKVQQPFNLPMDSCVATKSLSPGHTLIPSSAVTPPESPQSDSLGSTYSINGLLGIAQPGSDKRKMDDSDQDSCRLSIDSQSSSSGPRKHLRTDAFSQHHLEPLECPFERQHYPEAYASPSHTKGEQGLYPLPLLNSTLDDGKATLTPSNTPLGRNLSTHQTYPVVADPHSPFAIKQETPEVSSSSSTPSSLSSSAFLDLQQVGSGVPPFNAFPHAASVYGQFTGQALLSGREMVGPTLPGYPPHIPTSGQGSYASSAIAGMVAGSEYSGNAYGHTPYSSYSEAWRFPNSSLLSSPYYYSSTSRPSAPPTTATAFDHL

COc1ccc(C2CC(c3cccs3)=NN2c2nc(C)c(C(C)=O)s2)cc1OC (centres undefined)
EC50 [1]: 10.4 µM (active) | EC50 [2]: 7.5 µM (active) | EC50 (Lethal factor): 9.6 µM (active)

O=C(Nc1ccc(F)cc1)N1CCCCN2[C@H](CO)[C@H](c3ccc(C#Cc4ccccc4)cc3)[C@H]2C1
AC50 [3]: 7.78 µM (active) | AC50 [4]: 9.51 µM (active) | AC50 [5]: 7.46 µM (active) | AC50 [6]: 17.2 µM (active) | AC50 [7]: 1.2 µM (active)

O=C1C=C(NCc2ccc(Cl)cc2)C(=O)c2ccccc21
AC50 [8]: > 70 µM (inactive) | AC50 [9]: 53.3 µM (active) | AC50 [10]: > 70 µM (inactive)

COc1ccc(S(=O)(=O)N2CCCCN3[C@H](CO)[C@H](c4ccc(C#CC(C)C)cc4)[C@H]3C2)cc1
AC50 [11]: 65.5 µM (active) | AC50 [12]: 40.7 µM (active) | AC50 (Paired box protein Pax-8): 10.4 µM (active) | AC50 [13]: 36.8 µM (active)

C[C@@H]1CN([C@@H](C)CO)C(=O)c2cccc(NC(=O)c3ccncc3)c2O[C@H]1CN(C)Cc1ccc(Cl)cc1
IC50 [14]: 0.02 µM (active) | AC50 [15]: 0.0633 µM (active)

CCC1(O)CCCN(C(=O)c2ccc(C#Cc3ccc(OC)cc3)cc2)C1 (centres undefined)
IC50 [16]: 1.8 µM

COC(=O)c1cc(-c2ccccc2)cnc1N1CCC(NC2CCCCC2)CC1
IC50 [17]: 6.2 µM (active)
